Reference: PubChem BioAssay (NCI)
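Following 48 hours of exposure in 96-well plates, responses at five concentrations were used to interpolate endpoints linearly. At the GI50, growth is halved. The concentration for full growth arrest is given as TGI.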

How the values were obtained:
Assay in all cases: NCI-60 cell line screen, 48 h
[1] = test system: CAKI-1 renal
[2] = test system: HL-60(TB) leukemia
[3] = test system: HS 578T breast
[4] = test system: LOX IMVI melanoma
[5] = test system: NCI/ADR-RES ovarian
[6] = test system: OVCAR-3 ovarian
[7] = test system: SNB-19 CNS
[8] = test system: UACC-257 melanoma
[9] = test system: NCI-H226 lung
[10] = test system: A498 renal

SMILES	TGI [1] [µM]	TGI [2] [µM]	TGI [3] [µM]	TGI [4] [µM]	TGI [5] [µM]	TGI [6] [µM]	TGI [7] [µM]	TGI [8] [µM]	TGI [9] [µM]	TGI [10] [µM]	GI50 [10] [µM]	GI50 [1] [µM]	GI50 [2] [µM]	GI50 [4] [µM]	GI50 [9] [µM]	GI50 [5] [µM]	GI50 [6] [µM]	GI50 [7] [µM]	GI50 [8] [µM]	GI50 [3] [µM]
N#Cc1c(NC(=S)NC(=O)c2ccccc2)nc2c(c1-c1ccccc1)CCC2	> 100	> 100	> 100	> 100	> 100	> 100	> 100	> 100												
CSC1=Nc2ccccc2N(C)c2c1c(-c1ccccc1)nn2C	> 100	34.3	> 100	> 100	> 100	> 100		> 100												
O=C1CC(=O)N(c2ccccc2)N1/C(=C/c1ccccc1)c1ccccc1	33.7		45.4	3.06	61.5	57.1	43.6	59.2	73.5											
COC1OC(=O)[C@H]2O[N+]([O-])=C(C)[C@@H]12 (some centres not stated)	> 100	> 100		> 100	> 100	> 100	> 100	> 100	> 100	> 100										
CCn1cc(C(c2ccc(Cl)cc2)n2ccnc2)c2cc(Br)ccc21 (configuration not stated)	27.3		47.2	28.2	42.7	22.2	28.3	31.4	76.5	27										
O=[Se]([O-])c1ccccc1.O=[Se]([O-])c1ccccc1.[OH3+].[OH3+].[Pt+2]	> 26.4	5.66		19.2	9.89	32.8	33.7	11.8	52.5	> 48.8	16.5	11	2.19	3.42	12.9	2.8	7.91	10.9	2.96	
Nc1n[nH]c(=O)[nH]1	> 100	> 100		> 100	> 100	> 100	> 100	> 100	> 100	> 100										
Cc1[nH]c(/C=C2\C(=O)Nc3ccc(S(=O)(=O)Cc4c(Cl)cccc4Cl)cc32)c(C)c1C(=O)N1CCC[C@@H]1CN1CCCC1	13.6	5.49	43.9	3.22	> 24.4	47.4	6.74		54.8	52.8	18.7	5.05	1.97	1.73	15.1	2.96	16	2.41		7.72
C=CC(=O)Nc1cccc(-c2nc(SC)nc(Nc3ccccc3OC)c2C#N)c1	4.3	13	6.61		6.99	3.58	6.51	8.78	36.1	9.34	2.8	1.71	2.53		9.7	2.46	1.87	2.31	2.53	2.34
O=C(Nc1ccc(I)cc1C(=O)NCCO)c1cccs1	> 100	> 100		> 100	> 100	> 100	> 100	> 100	> 100											
